Measured values from patent publication US20120157421A1, “17Beta-Alkyl-17Alpha-oxy-estratrienes” (BAYER PHARMA AKTIENGESELLSCHAFT, priority 2009, published 2012).

Legend:
[1] = metabolic stability in human liver microsomes; assay type: in vitro ADME; conditions: estimated maximum oral bioavailability from human liver microsome incubation; 0.3 μM, 0.5 mg/ml protein, 37° C., 60 min
Procedure: The metabolic stability of test substances was determined by incubations in a suspension with human liver microsomes adjusted to a protein content of 0.5 mg/ml, at a concentration of 0.3 μM. The incubation volume was 3.03 ml, where 2.4 ml of a microsome suspension in phosphate buffer at pH 7.4 (sodium phosphate buffer 100 mM (NaH2PO4×H2O+Na2HPO4×2H2O) were initially charged, which were activated by addition of 0.6 ml of a cofactor mix (consisting of 1.2 mg of NADP, 3 IU of glucose 6-phosphate dehydrogenase, 14.6 mg of glucose 6-phosphate and 4.9 mg of MgCl2 in phosphate buffer, pH 7.4). The assay was started by addition of 30 μL of a test substance stock solution, where the composition of the stock solution was such that the solvent concentrations during the incubation were <0.2% for DMSO and <1% for methanol. The incubations were carried out at an incubation temperature of 37° C. over a period of 60 minutes, during which time the microsomes were kept in a homogeneous suspension by continuous stirring (Tec Control Shaker RS 485 at 300 rpm). At 6 different points in time (2, 8, 16, 30, 45 & 60 min), aliquots of in each case 250 μl were removed and immediately added to the same volume of ice-cold methanol and covered.
The decrease in concentrations over time were used to determine the half-life of the test substance in the microsomal incubation mixture described above, which in turn was used to calculate the “intrinsic clearance”, the maximum liver microsome rate for the metabolic elimination of the test substance. This “intrinsic clearance” for its part can be used together with various physiological parameters to estimate the maximum metabolic clearance in man, where the principle mentioned above is only capable of representing phase I metabolic reactions (typically: oxidoreductive reactions of Zytochrom P450 enzymes or flavin monooxigenase, and also hydrolytic reactions of esterases and amidases). Physiological parameters are: human liver blood flow: 1.3 l/kg/h; specific liver weight (per kg of body weight): 21 g/kg; microsomal protein content: 40 mg/g of liver. Furthermore, assuming that (i) the resorption of the test substance in humans is 100%, and (ii) the estimated metabolic clearance can be calculated as first pass, a maximum oral bioavailability (Fmax) was estimated.
Formulae & brief illustrations: CL intrinsic-apparent [in ml/(min*mg of protein)]: reflects the elimination constant kel (in min-1) of the test substance in the incubation mixture, divided by the microsomal protein content ([…]). CL intrinsic [in l(h*kg)]: maximum capability of the liver (microsomes) for metabolic elimination of the test substance, unless the liver blood flow is the limiting factor (kel*liver weight)/liver proportion (microsomal content) in the incubation. CL blood-well stirred [in l/(h*kg)]: estimated blood clearance (via Phase 1 metabolism): (QH*CL intrinsic)/(QH+CL intrinsic). Fmax [in %]: maximum bioavailability after oral administration of the test substance: (1-CL blood-well stirred/QH)*100.

[2] = test system: uterus growth in rats with simultaneous administration of oestradiol benzoate (EB); experiment: uterus growth test in infant rats, p.o. (test for antioestrogen action); assay type: in vivo, rat; conditions: inhibition of uterus growth relative to EB control; infant female rats; 0.5 μg EB/0.1 ml s.c. plus test compound p.o. in the range of 0.03 mg/kg body weight, once daily for three days
Procedure: To examine the efficacy of the compounds according to the invention, in vivo tests with infant rats were carried out. To this end, the growth of the uterus with peroral administration (p.o.) of the pharmaceutical was examined (test for antioestrogen action).
The principle of this method is to investigate the effect of an administration of compounds having antioestrogen action with simultaneous administration of oestrogens. In rodents, the administration of oestrogens results in an increased weight of the uterus (both by proliferation and by hydropexia). This growth can be inhibited in a dosage-related manner by simultaneous administration of compounds with antioestrogen action.
For the tests, infant female rats having a weight of 35-45 g were examined at the start of the experiment. Five to six animals per dose were tested. For the p.o. administration, the substances were dissolved in one part of ethanol (E) and made up with nine parts of peanut oil (PO). For acclimatization, the young rats just dropped by the mothers were delivered one day before the start of the treatment and immediately supplied with food—right in the cage. For three days, the animals were then treated in combination with 0.5 μg of oestradiol benzoate (EB) once per day. EB was always administrated subcutaneously (s.c.), whereas the test substance was administered p.o. 24 hours after the last administration, the animals were weighed and killed, and the uteri were removed. The moist weights (less contents) of the prepared uteri were determined. The following control studies were carried out: for a negative control, 0.2 ml of an E/PO mixture was administered per animal and day. […]
For each group, the means with standard deviation (X±SD) and the significance of the differences to the control group (EB) of the relative organ weights (mg/100 g of body weight) were determined in the Dunnett test (p<0.05). The inhibition (in %) relative to the EB control was determined using a calculation programme. The relative efficacy of the test substances was calculated by covariance and regression analysis.

Structure (SMILES) | Fmax (micros.) [%] [1] [%] | Inhibition [%] [2]
CN(CCCCCCCC(F)(F)C(F)(F)F)CCCCCC1Cc2cc(O)ccc2C2[C@@H]1C1CC[C@](C)(O)[C@@]1(C)C[C@@H]2F (stereo partly drawn) [Example C1, 11β-Fluoro-17α-methyl-7α-[5-[methyl(8,8,9,9,9-pentafluorononyl)amino]pentyl]oestra-1,3,5(10)-triene-3,17β-diol, reference compound] | 9 | 
C[C@]1(O)CCC2[C@@H]3C(CCCCCN4CCC[C@H]4CCCCCCC(F)(F)C(F)(F)F)Cc4cc(O)ccc4C3[C@@H](F)C[C@@]21C (stereo partly drawn) [Example C2, 11β-Fluoro-17α-methyl-7α-[5-[(2R)-2-(7,7,8,8,8-pentafluorooctyl)-1-pyrrolidinyl]pentyl]-oestra-1,3,5(10)-triene-3,17β-diol, reference compound] | 9 | 
C[C@]1(O)CCC2[C@@H]3C(CCCCCN4CCC[C@H]4CCCCCC(F)(F)C(F)(F)F)Cc4cc(O)ccc4C3[C@@H](F)C[C@@]21C (stereo partly drawn) [Example C3, 11β-Fluoro-17α-methyl-7α-[5-[(2R)-2-(6,6,7,7,7-pentafluoroheptyl)-1-pyrrolidinyl]pentyl]oestra-1,3,5(10)-triene-3,17β-diol, reference compound] | 8 | 
CN(CCCCCCCC(F)(F)C(F)(F)F)CCCCCC1Cc2c(ccc(O)c2Cl)C2[C@@H]1C1CC[C@@](C)(O)[C@@]1(C)C[C@@H]2F (stereo partly drawn) [Example 4, 4-Chloro-11β-fluoro-17β-methyl-7α-[5-[methyl(8,8,9,9,9-pentafluorononyl)amino]pentyl]-oestra-1,3,5(10)-triene-3,17α-diol] | 39 | 
C[C@]12C[C@H](F)C3c4ccc(O)c(Br)c4CC(CCCCCN4CCC[C@H]4CCCCCC(F)(F)C(F)(F)F)[C@H]3C1CC[C@@]2(C)O (stereo partly drawn) [Example 8, 4-Bromo-11β-fluoro-17β-methyl-7α-[5-[(2R)-2-(6,6,7,7,7-pentafluoroheptyl)-1-pyrrolidinyl]pentyl]oestra-1,3,5(10)-triene-3,17α-diol] | 48 | 
C[C@]12C[C@H](F)C3c4ccc(O)c(Br)c4CC(CCCCCN4CCC[C@H]4CCCCCCC(F)(F)C(F)(F)F)[C@H]3C1CC[C@@]2(C)O (stereo partly drawn) [Example 6, 4-Bromo-11β-fluoro-17β-methyl-7α-[5-[(2R)-2-(7,7,8,8,8-pentafluorooctyl)-1-pyrrolidinyl]pentyl]oestra-1,3,5(10)-triene-3,17α-diol] | 34 | 
C[C@]12C[C@H](F)C3c4ccc(O)c(Cl)c4CC(CCCCCN4CCC[C@H]4CCCCCC(F)(F)C(F)(F)F)[C@H]3C1CC[C@@]2(C)O (stereo partly drawn) [Example 9, 4-Chloro-11β-fluoro-17β-methyl-7α-[5-[(2R)-2-(6,6,7,7,7-pentafluoroheptyl)-1-pyrrolidinyl]pentyl]oestra-1,3,5(10)-triene-3,17α-diol] | 42 | 
C[C@]12C[C@H](F)C3c4ccc(O)c(Cl)c4CC(CCCCCN4CCC[C@H]4CCCCCCC(F)(F)C(F)(F)F)[C@H]3C1CC[C@@]2(C)O (stereo partly drawn) [Example 7, 4-Chloro-11β-fluoro-17β-methyl-7α-[5-[(2R)-2-(7,7,8,8,8-pentafluorooctyl)-1-pyrrolidinyl]pentyl]oestra-1,3,5(10)-triene-3,17α-diol] | 47 | 
C[C@]12C[C@H](F)C3c4ccc(O)cc4CC(CCCCCN4CCC[C@H]4CCCCCCC(F)(F)C(F)(F)F)[C@H]3C1CC[C@@]2(C)O (stereo partly drawn) [Example 2, 11β-Fluoro-17β-methyl-7α-[5-[(2R)-2-(7,7,8,8,8-pentafluorooctyl)-1-pyrrolidinyl]pentyl]-oestra-1,3,5(10)-triene-3,17α-diol] | 36 | 70%
C[C@]12C[C@H](F)C3c4ccc(O)cc4CC(CCCCCN4CCC[C@H]4CCCCCC(F)(F)C(F)(F)F)[C@H]3C1CC[C@@]2(C)O (stereo partly drawn) [Example 3, 11β-Fluoro-17β-methyl-7α-[5-[(2R)-2-(6,6,7,7,7-pentafluoroheptyl)-1-pyrrolidinyl]pentyl]oestra-1,3,5(10)-triene-3,17α-diol] | 40 | 40%
CN(CCCCCCCC(F)(F)C(F)(F)F)CCCCCC1Cc2cc(O)ccc2C2[C@@H]1C1CC[C@@](C)(O)[C@@]1(C)C[C@@H]2F (stereo partly drawn) [Example 1, [5-(11β-Fluoro-3,17α-dihydroxy-17β-methyloestra-1,3,5(10)-trien-7α-yl)pentyl](methyl)(8,8,9,9,9-pentafluorononyl)amine] | 39 | 42-59%
C[C@]12C[C@H](F)C3c4cc(Cl)c(O)c(Cl)c4CC(CCCCCN4CCC[C@H]4CCCCCCC(F)(F)C(F)(F)F)[C@H]3C1CC[C@@]2(C)O (stereo partly drawn) [Example 10, 2,4-Dichloro-11β-fluoro-17β-methyl-7α-[5-[(2R)-2-(7,7,8,8,8-pentafluorooctyl)-1-pyrrolidinyl]pentyl]oestra-1,3,5(10)-triene-3,17α-diol] | 34 | 
CN(CCCCCCCC(F)(F)C(F)(F)F)CCCCCC1Cc2c(ccc(O)c2Br)C2[C@@H]1C1CC[C@@](C)(O)[C@@]1(C)C[C@@H]2F (stereo partly drawn) [Example 5, 4-Bromo-11β-fluoro-17β-methyl-7α-[5-[methyl(8,8,9,9,9-pentafluorononyl)amino]pentyl]oestra-1,3,5(10)-triene-3,17α-diol] | 55 | 
